Laboratory results as given in publication PMC7918733, “Biological Profiling of Semisynthetic C19-Functionalized Ferruginol and Sugiol Analogues” (Antibiotics, 2021).
Where two headings read alike, the source gives them in different places.

Legend:
[1] = test system: HeLa (Cervix); conditions: C18-congeners; cited from earlier work
[2] = test system: L. donovani promastigotes; conditions: C18-congeners, read-out: L. donovani IC50 ± SD; cited from earlier work
[3] = test system: L. infantum promastigotes; parameters: method as in PMID 30840453; conditions: C18-congeners, read-out: L. infantum IC50 ± SD; cited from earlier work
[4] = test system: T-47D (Breast); conditions: C18-congeners; cited from earlier work
[5] = target: T1, GABAA receptor subtype (α1β2γ2S) (Homo sapiens, UniProt P14867+P18507+P47870); parameters: expressed in transfected cells; host or cells: Xenopus laevis oocytes; conditions: C18-congeners, cited from earlier work
T1 sequence (P14867 28-456): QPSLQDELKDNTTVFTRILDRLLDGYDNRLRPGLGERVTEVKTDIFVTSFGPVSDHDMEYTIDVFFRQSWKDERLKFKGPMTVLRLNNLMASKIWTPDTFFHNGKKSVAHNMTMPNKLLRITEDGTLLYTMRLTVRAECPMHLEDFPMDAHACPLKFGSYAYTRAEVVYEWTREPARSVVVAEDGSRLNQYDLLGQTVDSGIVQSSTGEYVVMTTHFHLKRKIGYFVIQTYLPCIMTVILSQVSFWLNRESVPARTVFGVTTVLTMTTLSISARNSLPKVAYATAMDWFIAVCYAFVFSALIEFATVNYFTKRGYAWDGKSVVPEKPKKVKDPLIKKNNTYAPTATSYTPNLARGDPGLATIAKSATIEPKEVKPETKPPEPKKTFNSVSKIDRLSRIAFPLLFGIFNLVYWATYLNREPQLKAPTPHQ
T1 sequence (P47870 26-512): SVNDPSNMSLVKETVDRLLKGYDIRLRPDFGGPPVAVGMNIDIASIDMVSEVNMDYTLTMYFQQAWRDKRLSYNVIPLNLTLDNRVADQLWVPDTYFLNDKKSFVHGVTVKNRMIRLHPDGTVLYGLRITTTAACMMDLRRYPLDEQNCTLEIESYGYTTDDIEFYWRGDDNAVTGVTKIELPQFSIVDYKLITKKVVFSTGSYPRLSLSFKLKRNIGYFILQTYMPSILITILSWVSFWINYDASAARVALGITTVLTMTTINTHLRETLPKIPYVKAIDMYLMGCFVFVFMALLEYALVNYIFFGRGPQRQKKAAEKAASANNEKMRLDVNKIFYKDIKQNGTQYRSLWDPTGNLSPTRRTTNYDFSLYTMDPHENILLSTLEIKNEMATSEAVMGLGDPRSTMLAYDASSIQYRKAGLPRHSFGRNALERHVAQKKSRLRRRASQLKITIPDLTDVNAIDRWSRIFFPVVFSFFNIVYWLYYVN
T1 sequence (P18507 40-467 isoform P18507-1 limits assumed): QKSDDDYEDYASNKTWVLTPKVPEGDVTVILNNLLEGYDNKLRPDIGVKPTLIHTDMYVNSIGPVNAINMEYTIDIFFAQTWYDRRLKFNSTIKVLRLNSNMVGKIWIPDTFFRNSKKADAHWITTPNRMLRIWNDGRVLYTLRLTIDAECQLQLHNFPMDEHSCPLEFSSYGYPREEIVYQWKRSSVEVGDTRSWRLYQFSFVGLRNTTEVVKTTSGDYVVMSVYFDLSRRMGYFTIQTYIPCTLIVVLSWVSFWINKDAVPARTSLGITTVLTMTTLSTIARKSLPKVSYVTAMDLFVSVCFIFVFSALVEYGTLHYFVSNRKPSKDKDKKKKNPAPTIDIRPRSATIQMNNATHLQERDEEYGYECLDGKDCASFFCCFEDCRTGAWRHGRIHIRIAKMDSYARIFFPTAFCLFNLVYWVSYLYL

[6] = test system: WiDr (Colon); conditions: C18-congeners; cited from earlier work
[7] = test system: SW1573 (Lung); conditions: C18-congeners; cited from earlier work
[8] = test system: L. guyanensis promastigotes; parameters: method as in PMID 30840453; conditions: C18-congeners, read-out: L. guyanensis IC50 ± SD; cited from earlier work
[9] = test system: Macrophages J774; conditions: read-out: Macrophages J774 CC50; C18-congeners; cited from earlier work
[10] = test system: L. amazonensis promastigotes; parameters: method as in PMID 30840453; conditions: C18-congeners, read-out: L. amazonensis IC50 ± SD; cited from earlier work
[11] = test system: A549 (Lung); conditions: C18-congeners; cited from earlier work
[12] = test system: HBL-100 (Breast); conditions: C18-congeners; cited from earlier work
[13] = target: T1, GABAA receptor subtype (α1β2γ2S); assay: Two-microelectrode voltage-clamp in Xenopus laevis oocytes
Experimental: All molecules were tested at concentrations of 10, 100 μM and compared with dehydroabietic acid (DHA) (3) as a reference [16].

[14] = test system: T-47D (Breast); assay: Antiproliferative SRB assay; format: cell-based; conditions: Homo sapiens, T47D, mean ± SD of at least two experiments
Experimental: (§1) Cells, cultures and the activity test of abietane analogs followed reported methods. The SRB assay was performed as previously described, and the antiproliferative activity was given as GI50 values, which were calculated according to NCI formulas.

[15] = test system: HeLa (Cervix); assay: Antiproliferative SRB assay; format: cell-based; conditions: Homo sapiens, mean ± SD of at least two experiments
Experimental: as §1

[16] = test system: HBL-100 (Breast); assay: Antiproliferative SRB assay; format: cell-based; conditions: Homo sapiens, mean ± SD of at least two experiments
Experimental: as §1

[17] = in vitro; conditions: mouse, Macrophages J774 CC50
Experimental: (§3) The compounds were additionally studied in a panel of mammalian cell lines to determine cytotoxicity.
(§4) The parasites, culture procedure and the activity of functionalized abietane analogs on Leishmania promastigotes were performed according to the method previously reported by us [28], while the intracellular amastigote assay was performed on L. amazonensis and L. infantum according to the fluorometric test [29]. The J774 cell culture and the cytotoxicity assay was carried out according to our previously described method [30].

[18] = test system: HepG2; assay: Cytotoxicity on mammalian cell lines; format: cell-based; conditions: Homo sapiens, HepG2; read-out: HepG2 EC50
Experimental: (§2) Assays were performed by using previously described DNA stain-based assay and methods, including cytotoxicity assays.

[19] = test system: RAJI; assay: Cytotoxicity on mammalian cell lines; format: cell-based; conditions: Homo sapiens, read-out: RAJI EC50
Experimental: as §2

[20] = test system: BJ; assay: Cytotoxicity on mammalian cell lines; format: cell-based; conditions: Homo sapiens, read-out: BJ EC50
Experimental: as §2

[21] = test system: HEK293; assay: Cytotoxicity on mammalian cell lines; format: cell-based; conditions: Homo sapiens, HEK293; read-out: HEK293 EC50
Experimental: as §2

[22] = test system: SW1573 (Lung); assay: Antiproliferative SRB assay; format: cell-based, human
Experimental: as §1

[23] = test system: A549 (Lung); assay: Antiproliferative SRB assay; format: cell-based, human
Experimental: as §1

[24] = test system: WiDr (Colon); assay: Antiproliferative SRB assay; format: cell-based, human; conditions: mean ± SD of at least two experiments
Experimental: as §1

[25] = test system: P. falciparum K1 strain; assay: Antiplasmodial DNA stain-based growth assay; format: cell-based; conditions: Plasmodium falciparum, K1; chloroquine-resistant strain; 72 h incubation; read-out: P. falciparum K1 EC50
Experimental: as §2

[26] = test system: P. falciparum 3D7 strain; assay: Antiplasmodial DNA stain-based growth assay; format: cell-based; conditions: Plasmodium falciparum, 3D7; chloroquine-sensitive strain; 72 h incubation; read-out: P. falciparum 3D7 EC50
Experimental: as §2

[27] = test system: L. infantum promastigotes; assay: Antileishmanial in vitro promastigote assay; conditions: Leishmania infantum, read-out: L. infantum IC50 ± SD
Experimental: as §3, §4

[28] = test system: L. amazonensis promastigotes; assay: Antileishmanial in vitro promastigote assay; conditions: Leishmania amazonensis, read-out: L. amazonensis IC50 ± SD
Experimental: as §3, §4

[29] = test system: L. infantum amastigotes; assay: Intracellular amastigote assay (fluorometric test); format: cell-based; conditions: Leishmania infantum, read-out: L. infantum IC50 ± SD
[30] = test system: L. guyanensis promastigotes; assay: Antileishmanial in vitro promastigote assay; conditions: Leishmania guyanensis, read-out: L. guyanensis IC50 ± SD
Experimental: as §3, §4

[31] = test system: L. donovani promastigotes; assay: Antileishmanial in vitro promastigote assay; conditions: Leishmania donovani, read-out: L. donovani IC50 ± SD
Experimental: as §3, §4

[32] = test system: L. amazonensis amastigotes; assay: Intracellular amastigote assay (fluorometric test); format: cell-based; conditions: Leishmania amazonensis, read-out: L. amazonensis IC50 ± SD
[33] = Homo sapiens, SW1573, mean ± SD of at least two experiments
[34] = Homo sapiens, A549, mean ± SD of at least two experiments
[35] = mean ± SD of at least two experiments

| Structure (SMILES) | GI50 [1] [µM] | IC50 [2] [µM] | IC50 [3] [µM] | GI50 [4] [µM] | IGABA Potentiation of 10 µM (%) [5] [%] | IGABA Potentiation of 100 µM (%) [5] [%] | GI50 [6] [µM] | GI50 [7] [µM] | IC50 [8] [µM] | CC50 [9] [µM] | IC50 [10] [µM] | GI50 [11] [µM] | GI50 [12] [µM] | other results |
| --- | --- | --- | --- | --- | --- | --- | --- | --- | --- | --- | --- | --- | --- | --- |
| CC(C)c1cc2c(cc1O)[C@@]1(C)CCC[C@@](C)(C(=O)O)C1CC2 (stereo partly drawn) [Compound 13b, 12-hydroxydehydroabietic acid] | 96 ± 5.5 | 58.1 ± 0.7 | 43.6 ± 3.4 | > 100 | 8.9 ± 2.3 | 12.1 ± 2.9 | > 100 | 93 ± 9.3 | 71.4 ± 1.5 | 85.8 ± 28.8 | 54.1 ± 6.5 | 70 ± 6.3 | > 100 |  |
| CC(C)c1cc2c(cc1O)[C@@]1(C)CCC[C@@](C)(CO)[C@@H]1CC2 [Compound 14b] | 12 ± 1.8 | 13.9 ± 0.1 | 0.7 ± 0.1 | 16 ± 0.9 | 29.3 ± 10.6 | 154.1 ± 34.2 | 17 ± 1.3 | 15 ± 2.8 | 12.5 ± 2.2 | 23.4 ± 4.6 | 7.7 ± 0.8 | 12 ± 1.9 | 16 ± 2 |  |
| CC(C)c1cc2c(cc1O)[C@@]1(C)CCC[C@](C)(CO)[C@@H]1CC2=O [Compound 15, 19-hydroxysugiol] |  |  |  |  |  |  |  |  |  |  |  |  |  | IGABA Potentiation of 100 µM (%) ([13]; 100 µM, α1β2γ2S receptors): 238 ± 28%; activation at 10 µM ([13]; read-out: IGABA Potentiation of 10 µM (%)): 30 ± 14%; activation at 100 µM ([13]; read-out: IGABA Potentiation of 100 µM (%)): 238%; GI50 [14]: 19 ± 1.1 µM; GI50 [15]: 15 ± 1.1 µM; GI50 [16]: 17 ± 1.7 µM; CC50 [17]: 50.1 ± 2.4 µM; EC50 [18]: > 25 µM; EC50 [19]: > 25 µM; EC50 [20]: > 25 µM; EC50 [21]: > 25 µM; GI50 [22, 33]: 19 ± 3.3 µM; GI50 [23, 34]: 10 ± 0.3 µM; GI50 ([24]; Homo sapiens, WiDr): 17 ± 5 µM; EC50 [25]: 9.4 µM; EC50 [26]: > 15 µM |
| CC(C)c1cc2c(cc1O)[C@@]1(C)CCC[C@@](C)(CO)[C@@H]1CC2=O [Compound 15b] | 16 ± 2.4 | 19.7 ± 0.4 | 9.7 ± 0.8 | 20 ± 2.7 | 4.5 ± 5.8 | −30.3 ± 9.5 | 19 ± 2.1 | 23 ± 0.7 | 16.5 ± 0.7 | 14.4 ± 2.8 | 10.2 ± 0.6 | 19 ± 3.3 | 16 ± 2 |  |
| COC(=O)[C@]1(C)CCC[C@]2(C)c3cc(O)c(C(C)C)cc3C(=O)C[C@@H]12 [Compound 16b] | > 100 |  |  | > 100 | 37.4 ± 12.7 | 242.4 ± 46.0 | > 100 | > 100 |  | 154 ± 49.3 |  | > 100 | > 100 |  |
| CC(C)=CCC[C@]1(C)C=Cc2c(O)c3c(c(CC=C(C)C)c2O1)O[C@]12C(=C[C@@H]4C[C@H]1C(C)(C)O[C@@]2(C/C=C(/C)C(=O)O)C4=O)C3=O [Gambogic acid, reference compound] |  |  |  |  |  |  |  |  |  |  |  |  |  | EC50 [18]: > 25 µM; EC50 [19]: 0.24 µM; EC50 [20]: 0.21 µM; EC50 [21]: 0.21 µM |
| CCCCCCCCCCCCCCCCOP(=O)([O-])OCC[N+](C)(C)C [Miltefosine, reference compound] |  |  |  |  |  |  |  |  |  |  |  |  |  | IC50 [27]: 3.4 ± 0.6 µM; IC50 [28]: 47.7 ± 5 µM; IC50 [29]: 58.1 ± 4.4 µM; CC50 [17]: 136 ± 1.4 µM; IC50 [30]: 18.2 ± 0.6 µM; IC50 [31]: 0.15 ± 0.02 µM; IC50 [32]: 16.5 ± 1.9 µM |
| N.N.[Cl][Pt][Cl] [cisplatin, reference compound] |  |  |  |  |  |  |  |  |  |  |  |  |  | GI50 [22, 35]: 2.7 ± 0.4 µM; GI50 [23, 35]: 4.9 ± 0.2 µM; GI50 [24]: 23 ± 4.3 µM |
| COc1cc([C@@H]2c3cc4c(cc3[C@@H](O[C@@H]3O[C@@H]5CO[C@@H](C)O[C@H]5[C@H](O)[C@H]3O)[C@H]3COC(=O)[C@H]23)OCO4)cc(OC)c1O [etoposide, reference compound] |  |  |  |  |  |  |  |  |  |  |  |  |  | GI50 [14]: 22 ± 5.5 µM; GI50 [15]: 3.3 ± 1.6 µM; GI50 [16]: 1.4 ± 0.1 µM; GI50 [22, 33]: 15 ± 1.5 µM; GI50 [23, 34]: 1.5 ± 0.3 µM; GI50 ([24]; Homo sapiens, WiDr): 23 ± 3.1 µM |
